In paper PMC5526604 (Journal of medicinal chemistry, 2017):
Where two headings read alike, the source gives them in different places.

Tests used:
[1] = molecular target: HIV integrase (Human immunodeficiency virus type 1 group M subtype B, UniProt P04585); experiment: HIV IN assay; format: biochemical, HIV-1
[2] = molecular target: HIV RT-associated RNase H (Human immunodeficiency virus type 1 group M subtype B, UniProt P04585); conditions: biochemical
[3] = read-out: Biochemical Inhibition INST IC50, as relisted in Table 2

Row | SMILES | IC50 [1] | IC50 [1, 3] | selectivity of RNase H inhibition over INST inhibition [2]
1 | O=C(NCc1cccc(Cl)c1F)c1c(Nc2ccc(-c3ccccc3)cc2)[nH]c(=O)n(O)c1=O [Compound 10h, N-(3-Chloro-2-fluorobenzyl)-1-(hydroxy)-1,2,3,6-tetrahydro-2,6-dioxo-4-(biphenylamino)pyrimidine-5-carboxamide] | > 100 µM | – | –
2 | O=C(Nc1ccc(-c2ccccc2)cc1)c1c(Nc2ccc(-c3ccccc3)cc2)[nH]c(=O)n(O)c1=O [Compound 10a, N-([1,1′-Biphenyl]-4-yl)-6-([1,1′-biphenyl]-4-ylamino)-3-hydroxy-2,4-dioxo-1,2,3,4-tetrahydropyrimidine-5-carboxamide] | > 100 µM | – | –
3 | O=C(Nc1ccc(-c2ccccc2)cc1)c1c(NCc2ccc(-c3ccccc3)cc2)[nH]c(=O)n(O)c1=O [Compound 10k, N-([1,1′-Biphenyl]-4-yl)-6-(([1,1′-biphenyl]-4-ylmethyl)amino)-3-hydroxy-2,4-dioxo-1,2,3,4-tetrahydropyrimidine-5-carboxamide] | > 100 µM | > 100 µM | –
4 | O=C(Nc1ccc(-c2ccc(F)cc2)cc1)c1c(Nc2ccc(-c3ccccc3)cc2)[nH]c(=O)n(O)c1=O [Compound 10b, 6-([1,1′-Biphenyl]-4-ylamino)-N-(4′-fluoro-[1,1′-biphenyl]-4-yl)-3-hydroxy-2,4-dioxo-1,2,3,4-tetrahydropyrimidine-5-carboxamide] | > 100 µM | – | –
5 | O=C(NCc1ccccc1F)c1c(Nc2ccc(-c3ccccc3)cc2)[nH]c(=O)n(O)c1=O [Compound 10g, N-(2-Fluorobenzyl)-1-(hydroxy)-1,2,3,6-tetrahydro-2,6-dioxo-4-(biphenylamino)pyrimidine-5-carboxamide] | > 100 µM | – | –
6 | O=C(NCc1cc(F)ccc1F)c1c(Nc2ccc(-c3ccccc3)cc2)[nH]c(=O)n(O)c1=O [Compound 10j, N-(2,5-Difluorobenzyl)-1-(hydroxy)-1,2,3,6-tetrahydro-2,6-dioxo-4-(biphenylamino) pyrimidine-5-carboxamide] | > 100 µM | > 100 µM | –
7 | O=C(NCc1cccc(F)c1)c1c(Nc2ccc(-c3ccccc3)cc2)[nH]c(=O)n(O)c1=O [Compound 10f, N-(3-Fluorobenzyl)-1-(hydroxy)-1,2,3,6-tetrahydro-2,6-dioxo-4 (biphenylamino)pyrimidine-5-carboxamide] | > 100 µM | > 100 µM | –
8 | O=C(Nc1ccccc1)c1c(NCc2ccc(-c3ccccc3)cc2)[nH]c(=O)n(O)c1=O [Compound 10m, 6-(([1,1′-Biphenyl]-4-ylmethyl)amino)-3-hydroxy-2,4-dioxo-N-phenyl-1,2,3,4-tetrahydropyrimidine-5-carboxamide] | > 100 µM | > 100 µM | –
9 | COc1ccc(-c2ccc(NC(=O)c3c(Nc4ccc(-c5ccccc5)cc4)[nH]c(=O)n(O)c3=O)cc2)cc1 [Compound 10c, 6-([1,1′-Biphenyl]-4-ylamino)-3-hydroxy-N-(4′-methoxy-[1,1′-biphenyl]-4-yl)-2,4-dioxo-1,2,3,4-tetrahydropyrimidine-5-carboxamide] | > 100 µM | – | –
10 | O=C(NCc1ccc(F)cc1F)c1c(Nc2ccc(-c3ccccc3)cc2)[nH]c(=O)n(O)c1=O [Compound 10i, N-(2,4-Difluorobenzyl)-1-(hydroxy)-1,2,3,6-tetrahydro-2,6-dioxo-4-(biphenylamino) pyrimidine-5-carboxamide] | > 100 µM | > 100 µM | –
11 | O=C(NCc1ccc(-c2ccccc2)cc1)c1c(NCc2ccccc2)[nH]c(=O)n(O)c1=O [Compound 10p, N-([1,1′-Biphenyl]-4-ylmethyl)-6-(benzylamino)-3-hydroxy-2,4-dioxo-1,2,3,4-tetrahydropyrimidine-5-carboxamide] | > 100 µM | > 100 µM | –
12 | O=C(NCc1ccc(-c2ccccc2)cc1)c1c(NCc2ccc(-c3ccccc3)cc2)[nH]c(=O)n(O)c1=O [Compound 10l] | > 100 µM | > 100 µM | –
13 | O=C(NCc1ccc(F)cc1)c1c(Nc2ccc(-c3ccccc3)cc2)[nH]c(=O)n(O)c1=O [Compound 10e, N-(4-Fluorobenzyl)-1-(hydroxy)-1,2,3,6-tetrahydro-2,6-dioxo-4-(biphenylamino)pyrimidine-5-carboxamide] | > 100 µM | – | –
14 | CCc1ccc(NC(=O)c2c(NCc3ccccc3)[nH]c(=O)n(O)c2=O)cc1 [Compound 10v, 6-(Benzylamino)-N-(4-ethylphenyl)-3-hydroxy-2,4-dioxo-1,2,3,4-tetrahydropyrimidine-5-carboxamide] | > 100 µM | > 100 µM | –
15 | O=C(Nc1ccccc1)c1c(NCc2ccccc2)[nH]c(=O)n(O)c1=O [Compound 10q, 6-(Benzylamino)-3-hydroxy-2,4-dioxo-N-phenyl-1,2,3,4-tetrahydropyrimidine-5-carboxamide] | > 100 µM | > 100 µM | –
16 | O=C(Nc1ccc(-c2ccccc2)cc1)c1c(NCc2ccccc2)[nH]c(=O)n(O)c1=O [Compound 10o, N-([1,1′-Biphenyl]-4-yl)-6-(benzylamino)-3-hydroxy-2,4-dioxo-1,2,3,4-tetrahydropyrimidine-5-carboxamide] | > 100 µM | > 100 µM | –
17 | O=C(Nc1ccc(C(F)(F)F)cc1)c1c(NCc2ccccc2)[nH]c(=O)n(O)c1=O [Compound 10y, 6-(Benzylamino)-3-hydroxy-2,4-dioxo-N-(4-(trifluoromethyl)phenyl)-1,2,3,4-tetrahydropyrimidine-5-carboxamide] | > 100 µM | > 100 µM | –
18 | O=C(NCc1ccccc1)c1c(Nc2ccccc2)[nH]c(=O)n(O)c1=O [Compound 10s, N-Benzyl-1-(hydroxy)-1,2,3,6-tetrahydro-2,6-dioxo-4-(phenylamino)pyrimidine-5-carboxamide] | – | – | ~4 fold
